Patent US9879243B2, “Culture medium for cell growth and transfection” (LIFE TECHNOLOGIES CORPORATION, priority 2001, dated 2018)

Columns and labels:
293 cells [1] = assay: Effect of replacement compounds on the growth of 293 cells in 293 SFM without transferrin, three passages; format: cell-based, human; conditions: third passage, control 5 μg/mL human holo-transferrin
Description: Semi-confluent adherent cultures of 293 Cells (ATCC, CRL 1573) are readily adapted to suspension culture. The cells are first detached with a solution of Trypsin-EDTA (0.05% Trypsin, 0.53 mM Na4EDTA), and then resuspended in conventional medium supplemented with 10% FBS to inhibit the trypsin. The resuspended cells are centrifuged at 200×g for five minutes.
The initial seeding density of the 293 cells after conversion to suspension culture is 1×10^6 cells/mL. The cells are shaken on a rotary shaker at 150 rpm in a 37° C. incubator equilibrated with 8% CO2-92% air. […] Because 293 cells have a tendency to aggregate, the cells can be vortexed vigorously for approximately 45 seconds to obtain a predominantly single cell suspension at the time of passaging and counting. After several passages in suspension culture, the maximum achievable density can be determined.
(§1) For replacement compound evaluation, 293 cells were established in 125 mL shaker flasks at an initial viable seeding density of 2×10^5 cells/mL in a final volume of 20 mL. All cultures were maintained at 37° C. in humidified air containing 8% CO2. To eliminate transferrin carry-over effects, cells were subcultured at 4 day intervals for a total of three passages. At each subculturing, cells were seeded at a density of 2×10^5 cells/mL. Positive control cultures contained 5 μg/mL human holo-transferrin while negative control cultures were established in the absence of either transferrin or replacement compound. Replacement compound stocks were prepared at 0.1M-0.2M in ddH2O and solubilized when necessary using 5N NaOH or HCl. Iron complexes were established using 0.2 M replacement compound and iron stocks mixed 1:1 (v/v) and incubated for 5-10 minutes at 22° C. All solutions containing replacement compounds were filter sterilized using a 0.22 μm Millex-GV filter prior to addition to transferrin and serum-free media.
Except where noted, replacement compounds were evaluated either alone or in combination with ferric chloride or ferrous sulfate at 25 μM, 50 μM and 100 μM. When used in combination, the replacement compounds were used in equimolar concentration with iron ions. Values in Table 4 represent the mean percentage of control growth for duplicate cultures determined at the third passage.
When added to the medium formulation uncomplexed, the replacement compound is listed alone, when added as a complex with a transition metal, the source of the transition metal is listed with the replacement compound.

293 cells [2] = assay: β-galactosidase expression after transfection (pCMV-SPORT-β-gal, LIPOFECTAMINE 2000) of 293 cells in monolayer culture, 24-well plates; format: cell-based, human; conditions: Table 8, replacement compounds 25 μM in test media, 24 hrs post-transfection
Description: When cultured in suspension, cells were split to 3×10^5 viable cells per ml at each passage. On the week of transfection cells were seeded at 3×10^5 viable cells per ml. After ˜48 hrs of growth (day 2) cells were vortexed for 30 seconds and counted and appropriate volumes used for transfection as described in procedures below.
In addition, the base media comprises 2.4 g/L NaHCO3, 2.98 g/L Hepes, 4 mM L-glutamine and 3 ml/L PLURONIC F-68 (Invitrogen Corp., Carlsbad, Calif.).
The osmolarity is adjusted to from about 275-310 mOsm, preferably about 280 mOsm and the pH is adjusted to from about 7.0 to about 7.45 preferably about 7.4 respectively.
Three wells were set up for each treatment. A volume of media corresponding to 3×10^6 viable cells was centrifuged. The supernatant was removed and the cells re-suspended in 600 μl test media. Each well of a 24 well plate received 200 μl of the re-suspended cells.
To prepare the nucleic acid for the transfection experiments, 93 μl test media+3 μl DNA+24 μl LIPOFECTAMINE 2000 were combined in a microfuge tube and complexed for 30 minutes. A 40 μl aliquot of complex was added to each well. 250 μl test media was added to each well five hours after addition of complex. The final cell concentration was 1×10^6 viable cells per well; the final DNA concentration was 1 μg per 1×10^6 viable cells and the final LIPOFECTAMINE 2000 concentration was 8 μl per 1×10^6 viable cells.
24 hrs post-transfection, samples were collected for β-galactosidase quantitation. The contents of duplicate wells were pooled (i.e. ˜2×10^6 cells for the assay) for each sample and transferred to a microfuge tube. The cells were centrifuged, the supernatant was removed and the cells were re-suspended in 1 ml of D-PBS. The cells were pelleted a second time and re-suspended in 1 ml of D-PBS. The samples were then stored at −70° C. Prior to the assay for β-galactosidase, samples were freeze-thawed a total of five times.
293 cells were grown in monolayer culture in the presence of the various replacement compounds indicated and transfection experiments performed as described above. The results are shown in Table 8 and the values are β-galactosidase activity expressed as nanograms of β-galactosidase per 2×10^6 cells. A comparison was made between the transfection efficiency of DNA complexes formed in D-MEM medium and DNA complexes formed in test medium. […]
For cells transfected in 24-well plates, cells densities used were 1×10^6 viable cells per well.

CHO cells = assay: Effect of replacement compounds on the growth of CHO cells in CD CHO medium without transferrin, three passages; format: cell-based, Chinese hamster; conditions: third passage
Description: as §1, with “The ability of replacement compounds to support cellular growth in the absence of transferrin was evaluated using CHO cells maintained in CD CHO medium (Invitrogen Corporation, Carlsbad, Calif., the formulation of which is described in WO 98/08934). Stock cultures containing 5 μg/mL human holo-transferrin were prepared in CD CHO medium. For” for “For”, “CHO” for “293”, “1×10^5” for “2×10^5”, “passages.” for “passages. At each subculturing, cells were seeded at a density of 2×10^5 cells/mL.”, “0.2M” for “0.2 M”
Except where noted, replacement compounds were evaluated either alone or in combination with ferric chloride or ferrous sulfate at 25 μM, 50 μM and 100 μM. Values in the table represent the mean percentage of control growth for duplicate cultures determined at the third passage.
The ability of various replacement compounds to substitute for transferrin in the culture of CHO cells was determined. When added to the medium formulation un-complexed, the replacement compound is listed alone, when added as a complex with a transition metal, the source of the transition metal is listed with the metal binding compound.

Sp2/0 cells = assay: Effect of replacement compounds on the growth of Sp2/0 cells in CD Hybridoma medium without transferrin, three passages; format: cell-based; conditions: third passage
Description: The ability of replacement compounds to support cellular growth in the absence of transferrin was evaluated using Sp2/0 cells maintained in CD Hybridoma medium (Invitrogen Corporation, Carlsbad, Calif.).
Stock cultures containing 5 μg/mL human holo-transferrin were prepared in CD Hybridoma medium. For replacement compound evaluation, Sp2/0 cells were established at an initial viable cell density of 0.5×10^5 cells/mL in stationary culture using 75 cm^2 tissue culture flasks in a final volume of 20 mL. All cultures were maintained at 37° C. in humidified air containing 8% CO2. To eliminate transferrin carry-over effects, cells were subcultured at the same seeding density at 4 day intervals for a total of three passages. Positive control cultures contained 5 μg/mL human holo-transferrin while negative control cultures were established in the absence of either transferrin or replacement compound. Replacement compound stocks were prepared at 0.1M-0.2M in ddH2O and solubilized when necessary using 5N NaOH or HCl. Iron complexes were established using 0.2M replacement compound and iron stocks mixed 1:1 (v/v) and incubated for 5-10 minutes at 22° C. All solutions containing replacement compounds were filter sterilized using a 0.22 μm Millex-GV filter prior to addition to transferrin and serum-free media.
Except where otherwise noted, replacement compounds were evaluated either alone or in combination with ferric chloride or ferrous sulfate at 25 μM, 50 μM and 100 μM. Values in the table represent the mean percentage of control growth for duplicate cultures determined at the third passage.
When added to the medium formulation un-complexed, the replacement compound is listed alone, when added as a complex with a transition metal, the source of the transition metal is listed with the replacement compound.

[3] = 25 μM, iron equimolar where combined
[4] = 25 μM, control 5 μg/mL human holo-transferrin

Row | Compound | mean percentage of control growth (293 cells [1]; [3]) | mean percentage of control growth (293 cells [1]; 50 μM) | mean percentage of control growth (293 cells [1]; 100 μM) | β-galactosidase activity; D-MEM used for complexing, Test media to re-suspend cells (293 cells [2]) | β-galactosidase activity; Test Media used for complexing and to re-suspend cells (293 cells [2]) | mean percentage of control growth (CHO cells; [4]) | mean percentage of control growth (CHO cells; 50 μM) | mean percentage of control growth (CHO cells; 100 μM) | mean percentage of control growth (Sp2/0 cells; [4]) | mean percentage of control growth (Sp2/0 cells; 50 μM) | mean percentage of control growth (Sp2/0 cells; 100 μM)
1 | Diethylenetriamine Penta-Acetic Acid•Ferric Chloride | 79 percentage of control growth | 96 percentage of control growth | 102 percentage of control growth | 131 nanograms of β-galactosidase per 2×10^6 cells | 574 nanograms of β-galactosidase per 2×10^6 cells | – | – | – | – | – | –
2 | Human Transferrin (as control): human transferrin used as control replacement compound in test media | – | – | – | 326 nanograms of β-galactosidase per 2×10^6 cells | 3279 nanograms of β-galactosidase per 2×10^6 cells | – | – | – | – | – | –
3 | O=S(=O)([O-])[O-].[Fe+2] [Ferrous Sulfate, reference compound] | 71 percentage of control growth | 60 percentage of control growth | 41 percentage of control growth | 258 nanograms of β-galactosidase per 2×10^6 cells | 406 nanograms of β-galactosidase per 2×10^6 cells | 88 percentage of control growth | 79 percentage of control growth | 38 percentage of control growth | 91 percentage of control growth | 103 percentage of control growth | 94 percentage of control growth
4 | O=S(=O)([O-])[O-].[Fe+2].[O-][n+]1cccc(O)c1 [3-Hydroxypyridine-N-Oxide•Ferrous Sulfate] | 104 percentage of control growth | 58 percentage of control growth | 0 percentage of control growth | 176 nanograms of β-galactosidase per 2×10^6 cells | 317 nanograms of β-galactosidase per 2×10^6 cells | – | – | – | – | – | –
5 | Nitriloacetic Acid•Ferric Chloride | 100 percentage of control growth | 118 percentage of control growth | 74 percentage of control growth | 45 nanograms of β-galactosidase per 2×10^6 cells | 33 nanograms of β-galactosidase per 2×10^6 cells | 127 percentage of control growth | 107 percentage of control growth | 107 percentage of control growth | 88 percentage of control growth | 87 percentage of control growth | 70 percentage of control growth
6 | [Cl][Fe]([Cl])[Cl].c1ccc(Nc2ccccn2)nc1 [2,2-Dipyridylamine•Ferric Chloride] | 118 percentage of control growth | 96 percentage of control growth | 101 percentage of control growth | 347 nanograms of β-galactosidase per 2×10^6 cells | 459 nanograms of β-galactosidase per 2×10^6 cells | 40 percentage of control growth | 48 percentage of control growth | 65 percentage of control growth | – | – | –
7 | Cc1occc(=O)c1O [3-Hydroxy-2-Methyl-4-Pyrone (Maltol), 3-Hydroxy-2-Methyl-4-Pyrone] | 0 percentage of control growth | 28 percentage of control growth | 81 percentage of control growth | 103 nanograms of β-galactosidase per 2×10^6 cells | 52 nanograms of β-galactosidase per 2×10^6 cells | – | – | – | 0 percentage of control growth | 0 percentage of control growth | 0 percentage of control growth
